Tests used:
BTK [1] = target: T1, BTK (Homo sapiens (Human), UniProt Q06187); assay: HTRF KinEASE-TK kinase assay, BTK; assay type: biochemical; details: 3 h preincubation; for remaining activity at 1 µM: 1 μM compound, read-out: % BTK Remaining activity vs DMSO (1 μM, 3 h); for remaining activity at 10 µM: 10 μM compound, read-out: % BTK Remaining activity vs DMSO (10 μM, 3 h)
Outline: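 BTK activity in HTRF KinEASE-TK format, buffer containing 10 mM MnCl2, 5 mM MgCl2, 1 uM ATPγS and 1 mM TCEP; 45 min reaction with biotinylated substrate and ATP.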

EGFR = EGFR (Homo sapiens (Human), UniProt P00533); assay: HTRF KinEASE-TK kinase assay, EGFR; assay type: biochemical; details: 3 h preincubation; for remaining activity at 1 µM: 1 μM compound, read-out: % EGFR Remaining activity vs DMSO (1 μM, 3 h); for remaining activity at 10 µM: 10 μM compound, read-out: % EGFR Remaining activity vs DMSO (10 μM, 3 h); for IC50: dose response, read-out: EGFR Inhibition IC50
Outline: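 HTRF KinEASE-TK format: EGFR pre-incubated with compound at 1 and 10 uM final (0.5% DMSO) in kinase buffer with 2 mM MnCl2, 5 mM MgCl2 and 1 mM TCEP.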

BMX = BMX (Homo sapiens (Human), UniProt P51813); assay: HTRF KinEASE-TK kinase assay, BMX; assay type: biochemical; details: for remaining activity at 1 µM: 1 uM compound; for remaining activity at 1 µM / remaining activity at 10 µM: 3 h preincubation; for remaining activity at 10 µM: 10 uM compound
Outline: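 Purchased BMX (0.333 ng/ul, 3.03 nM) was preincubated with or without inhibitor for 3 h at room temperature, then biotinylated substrate and ATP were added. Reactions were stopped with EDTA-containing buffer holding 31.25 nM SA-XL665 and Eu-antibody, and after 60 min phosphorylation was read as the HTRF 665/620 nm emission ratio.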

BTK [2] = target: T1, BTK; assay: Ramos RA1 cell lysis and immunoassay, total BTK degradation; assay type: cell-based; set-up: key to % BTK degradation (RAMOS, 24 h): Y: BTK bound in cells and BTK degradation occurred; concentration or dose not given beside the values; key to % BTK degradation (RAMOS, 10 uM, 24 h): Y: EGFR bound in cells and EGFR degradation occurred; details: RAMOS cells
Method: (§1) Ramos RA 1 cells (ATCC) were cultured in RPMI-1640 media (Wisent) supplemented with 10% heat-inactivated FBS and 1% penicillin/streptomycin. Cells were seeded in 6-well plates at 1.71×10^6 cells/well and incubated at 37° C., 5% CO2 for 16 hours. Cells were treated with compound at the indicated concentrations or DMSO alone and incubated at 37° C., 5% CO2 for 24 hours. Cell suspensions were centrifugated at 1,400-1,600 RPM for 5 minutes at room temperature and supernatants were discarded. Cell pellets were resuspended with 1× RIPA buffer (Millipore) and incubated on ice for 15 minutes. Protein lysates were extracted by centrifugating at 20,000 RPM for 20 minutes at 4° C. Proteins were separated and total BTK protein levels were quantified by Simple Western Immunoassay (ProteinSimple) using the 12-230 kDa Jess Separation Module according to the manufacturer's protocol, using a protein concentration of 0.25 μg/μl and antibodies targeting BTK (clone #D3H5, Cell Signalling) and β-Actin (clone #AC-15, Santa Cruz) diluted to 1:400 and 1:10, respectively, where the latter was used as a loading control. An equal ratio of rabbit and mouse HRP-conjugated secondary antibodies was used for detection. BTK protein levels were quantified relative to S-Actin loading levels and subsequently normalized to the DMSO control. Phosphorylated BTK levels were quantified using the Protein Normalization Assay Module for Jess (ProteinSimple) according to the manufacturer's protocol, using a protein concentration of 1.5 μg/μl and an antibody targeting pBTK (Y223) (Cell Signalling) diluted to 1:50. Phosphorylated BTK levels were quantified relative to the Protein Normalization Reagent and subsequently normalized to the DMSO control.

FGFR4 = FGFR4 (Homo sapiens (Human), UniProt P22455); assay: HTRF KinEASE-TK kinase assay, FGFR4; assay type: biochemical; details: for remaining activity at 1 µM: read-out: % FGFR4 Remaining activity vs DMSO (1 μM, 3 h); for remaining activity at 10 µM: read-out: % FGFR4 Remaining activity vs DMSO (10 μM, 3 h); for IC50: dose response
Outline: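 Promega FGFR4 at 0.333 ng/ul (5.12 nM) preincubated with or without inhibitor for 3 h at room temperature, then reaction started with biotinylated substrate and ATP. Stopped with EDTA detection buffer containing 31.25 nM SA-XL665 and Eu-antibody; after 60 min, HTRF 665/620 nm ratio read as substrate phosphorylation.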

JAK3 = JAK3 (Homo sapiens (Human), UniProt P52333); assay: HTRF KinEASE-TK kinase assay, JAK3; assay type: biochemical; details: for remaining activity at 1 µM: read-out: % JAK3 Remaining activity vs DMSO (1 μM, 3 h); for remaining activity at 10 µM: read-out: % JAK3 Remaining activity vs DMSO (10 μM, 3 h); for IC50: dose response
Outline: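 Promega JAK3 at 0.21 nM was preincubated with inhibitor for 3 h at room temperature before biotinylated substrate and ATP were added. The reaction was stopped with EDTA detection buffer containing 31.25 nM SA-XL665 and Eu-antibody. After 60 min, the HTRF 665/620 nm emission ratio reflected substrate phosphorylation.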

BTK [3] = target: T1, BTK; assay: Ramos RA1 cell lysis and immunoassay, phospho-BTK (Y223) inhibition; assay type: cell-based; set-up: key: X: BTK bound and autophosphoration of BTK inhibited in cells; details: RAMOS cells, compound concentration 1 μM
Method: as §1

Sequence of EGFR (P00533 25-1210): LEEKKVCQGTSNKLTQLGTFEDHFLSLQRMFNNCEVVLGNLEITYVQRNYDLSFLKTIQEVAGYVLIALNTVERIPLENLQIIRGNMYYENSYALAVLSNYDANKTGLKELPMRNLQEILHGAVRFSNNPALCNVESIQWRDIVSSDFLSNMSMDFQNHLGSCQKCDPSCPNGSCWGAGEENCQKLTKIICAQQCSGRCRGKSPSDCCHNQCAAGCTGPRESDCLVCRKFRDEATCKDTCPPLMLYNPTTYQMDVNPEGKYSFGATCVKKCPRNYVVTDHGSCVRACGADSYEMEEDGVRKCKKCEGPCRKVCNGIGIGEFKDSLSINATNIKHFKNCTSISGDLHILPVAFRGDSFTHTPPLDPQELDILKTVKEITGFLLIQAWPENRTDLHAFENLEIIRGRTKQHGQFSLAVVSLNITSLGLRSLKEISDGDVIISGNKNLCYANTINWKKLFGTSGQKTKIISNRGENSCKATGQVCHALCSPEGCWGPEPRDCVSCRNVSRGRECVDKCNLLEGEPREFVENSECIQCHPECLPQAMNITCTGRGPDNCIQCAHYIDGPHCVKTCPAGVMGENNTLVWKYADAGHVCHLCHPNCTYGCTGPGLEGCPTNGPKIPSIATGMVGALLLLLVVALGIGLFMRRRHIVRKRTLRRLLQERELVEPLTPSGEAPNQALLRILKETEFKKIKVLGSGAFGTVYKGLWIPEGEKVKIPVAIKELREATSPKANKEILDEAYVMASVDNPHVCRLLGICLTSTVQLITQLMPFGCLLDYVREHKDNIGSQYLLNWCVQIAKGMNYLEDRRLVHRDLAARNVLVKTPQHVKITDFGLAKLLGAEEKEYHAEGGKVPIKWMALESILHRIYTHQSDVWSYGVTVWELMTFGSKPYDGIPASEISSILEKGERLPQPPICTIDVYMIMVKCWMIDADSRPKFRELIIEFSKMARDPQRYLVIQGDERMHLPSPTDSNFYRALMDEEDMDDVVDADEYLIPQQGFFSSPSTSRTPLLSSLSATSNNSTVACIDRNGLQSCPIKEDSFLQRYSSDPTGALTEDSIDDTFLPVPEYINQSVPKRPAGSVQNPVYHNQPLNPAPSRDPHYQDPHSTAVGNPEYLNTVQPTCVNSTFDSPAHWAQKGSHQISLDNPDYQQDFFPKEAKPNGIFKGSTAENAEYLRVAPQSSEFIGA
T1 sequence (Q06187 whole entry): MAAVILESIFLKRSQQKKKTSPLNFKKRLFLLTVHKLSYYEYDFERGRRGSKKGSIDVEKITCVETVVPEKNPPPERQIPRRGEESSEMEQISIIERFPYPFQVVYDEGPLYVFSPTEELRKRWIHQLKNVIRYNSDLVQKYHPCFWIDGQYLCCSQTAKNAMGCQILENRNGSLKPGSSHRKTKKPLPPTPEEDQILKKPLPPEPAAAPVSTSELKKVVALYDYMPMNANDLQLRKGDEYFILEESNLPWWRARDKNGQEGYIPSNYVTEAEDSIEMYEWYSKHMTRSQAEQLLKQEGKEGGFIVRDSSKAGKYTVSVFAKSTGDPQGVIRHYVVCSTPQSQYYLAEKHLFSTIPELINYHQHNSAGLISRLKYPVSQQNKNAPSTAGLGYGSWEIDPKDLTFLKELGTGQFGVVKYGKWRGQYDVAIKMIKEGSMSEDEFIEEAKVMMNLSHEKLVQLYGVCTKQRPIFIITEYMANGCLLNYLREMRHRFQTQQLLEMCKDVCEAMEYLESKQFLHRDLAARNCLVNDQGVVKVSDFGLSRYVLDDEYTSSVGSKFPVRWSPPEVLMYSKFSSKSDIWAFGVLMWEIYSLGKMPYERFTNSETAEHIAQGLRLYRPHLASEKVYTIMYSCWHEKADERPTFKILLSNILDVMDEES
Sequence of BMX (P51813 whole entry): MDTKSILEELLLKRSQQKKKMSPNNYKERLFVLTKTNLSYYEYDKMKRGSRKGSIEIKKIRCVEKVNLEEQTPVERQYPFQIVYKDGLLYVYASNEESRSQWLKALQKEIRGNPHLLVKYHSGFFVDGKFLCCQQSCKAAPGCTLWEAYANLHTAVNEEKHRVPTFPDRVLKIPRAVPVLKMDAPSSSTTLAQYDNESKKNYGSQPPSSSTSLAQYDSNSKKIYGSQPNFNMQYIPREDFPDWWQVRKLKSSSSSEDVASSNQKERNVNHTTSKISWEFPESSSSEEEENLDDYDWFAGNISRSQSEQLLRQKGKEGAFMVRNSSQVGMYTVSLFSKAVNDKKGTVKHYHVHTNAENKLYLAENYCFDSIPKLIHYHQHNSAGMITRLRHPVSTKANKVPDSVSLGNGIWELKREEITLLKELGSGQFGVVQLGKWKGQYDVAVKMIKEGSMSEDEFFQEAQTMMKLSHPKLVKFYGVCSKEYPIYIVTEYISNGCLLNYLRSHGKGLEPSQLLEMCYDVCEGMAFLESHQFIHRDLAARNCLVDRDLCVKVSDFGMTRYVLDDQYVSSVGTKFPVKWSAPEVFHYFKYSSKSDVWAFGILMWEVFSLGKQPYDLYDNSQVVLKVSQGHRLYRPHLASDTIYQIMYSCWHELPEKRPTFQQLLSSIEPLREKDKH
Sequence of FGFR4 (P22455 22-802): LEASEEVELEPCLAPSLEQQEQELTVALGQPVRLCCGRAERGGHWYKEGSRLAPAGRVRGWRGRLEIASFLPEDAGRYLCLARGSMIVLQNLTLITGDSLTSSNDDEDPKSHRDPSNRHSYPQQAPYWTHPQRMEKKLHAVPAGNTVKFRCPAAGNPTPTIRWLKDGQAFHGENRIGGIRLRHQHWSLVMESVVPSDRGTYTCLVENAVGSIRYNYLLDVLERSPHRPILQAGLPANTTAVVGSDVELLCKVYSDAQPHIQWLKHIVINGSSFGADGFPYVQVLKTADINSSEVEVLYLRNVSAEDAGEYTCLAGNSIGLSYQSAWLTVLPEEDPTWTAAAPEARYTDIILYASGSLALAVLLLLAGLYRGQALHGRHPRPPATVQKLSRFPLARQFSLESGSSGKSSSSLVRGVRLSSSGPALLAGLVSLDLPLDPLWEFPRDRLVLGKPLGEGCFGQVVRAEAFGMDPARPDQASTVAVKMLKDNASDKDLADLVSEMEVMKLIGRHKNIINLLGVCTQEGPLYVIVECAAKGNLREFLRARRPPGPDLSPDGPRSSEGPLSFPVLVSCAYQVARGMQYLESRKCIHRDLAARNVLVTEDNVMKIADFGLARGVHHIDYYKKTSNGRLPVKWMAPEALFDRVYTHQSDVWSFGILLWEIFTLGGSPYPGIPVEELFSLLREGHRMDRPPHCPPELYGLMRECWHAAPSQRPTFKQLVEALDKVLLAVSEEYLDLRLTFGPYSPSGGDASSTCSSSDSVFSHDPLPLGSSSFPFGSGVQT
Sequence of JAK3 (P52333 781-1124): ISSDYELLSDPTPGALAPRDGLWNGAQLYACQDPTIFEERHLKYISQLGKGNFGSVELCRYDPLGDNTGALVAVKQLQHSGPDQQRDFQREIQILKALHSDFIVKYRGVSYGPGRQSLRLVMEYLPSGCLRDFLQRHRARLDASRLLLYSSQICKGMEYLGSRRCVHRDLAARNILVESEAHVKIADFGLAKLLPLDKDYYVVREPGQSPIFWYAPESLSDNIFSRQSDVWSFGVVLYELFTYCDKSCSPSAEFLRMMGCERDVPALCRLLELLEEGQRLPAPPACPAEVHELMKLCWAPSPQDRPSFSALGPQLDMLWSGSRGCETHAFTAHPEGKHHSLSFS

SMILES | remaining activity at 1 µM (BTK [1]) [%] | remaining activity at 10 µM (BTK [1]) [%] | remaining activity at 1 µM (EGFR) [%] | remaining activity at 10 µM (EGFR) [%] | IC50 (EGFR) [µM] | remaining activity at 1 µM (BMX) [%] | remaining activity at 10 µM (BMX) [%] | % BTK degradation (RAMOS, 24 h) (BTK [2]) | remaining activity at 1 µM (FGFR4) [%] | remaining activity at 10 µM (FGFR4) [%] | remaining activity at 1 µM (JAK3) [%] | remaining activity at 10 µM (JAK3) [%] | % BTK degradation (RAMOS, 10 uM, 24 h) (BTK [2]; 10 uM) | IC50 (FGFR4) [µM] | pBTK inhibition (RAMOS, 24 h) (BTK [3]) | IC50 (BMX; dose response) [µM] | IC50 (JAK3) [µM]
Nc1ncnc2c1c(-c1ccc(Oc3ccccc3)cc1)nn2[C@@H]1CCN(S(=O)(=O)c2c(F)c(F)c(F)c(F)c2OCF)C1 [Compound I-24, (R)-3-(4-phenoxyphenyl)-1-(1-((2,3,4,5-tetrafluoro-6-(fluoromethoxy)phenyl)sulfonyl)pyrrolidin-3-yl)-1H-pyrazolo[3,4-d]pyrimidin-4-amine] | < 50 | < 50 | > 90 | > 90 |  | < 50 | < 50 |  | < 50 | < 50 | > 90 | 50 to 90 |  | > 1 | X |  | 
CN(C)S(=O)(=O)c1c(F)c(F)c(F)c(F)c1C(=O)NCCNc1ncnc2[nH]ccc12 [Compound I-47, N-(2-((7H-pyrrolo[2,3-d]pyrimidin-4-yl)amino)ethyl)-2-(N,N-dimethylsulfamoyl)-3,4,5,6-tetrafluorobenzamide] | < 50 | < 50 | > 90 | > 90 |  | < 50 | < 50 | Y | 50 to 90 | 50 to 90 | < 50 | < 50 |  |  |  | < 1 | < 1

The remaining lines, values ahead:

remaining activity at 1 µM (BTK [1]) [%] | remaining activity at 10 µM (BTK [1]) [%] | remaining activity at 1 µM (EGFR) [%] | remaining activity at 10 µM (EGFR) [%] | IC50 (EGFR) [µM] | remaining activity at 1 µM (BMX) [%] | remaining activity at 10 µM (BMX) [%] | % BTK degradation (RAMOS, 24 h) (BTK [2]) | remaining activity at 1 µM (FGFR4) [%] | remaining activity at 10 µM (FGFR4) [%] | remaining activity at 1 µM (JAK3) [%] | remaining activity at 10 µM (JAK3) [%] | % BTK degradation (RAMOS, 10 uM, 24 h) (BTK [2]; 10 uM) | IC50 (FGFR4) [µM] | pBTK inhibition (RAMOS, 24 h) (BTK [3]) | IC50 (BMX; dose response) [µM] | IC50 (JAK3) [µM] | SMILES
> 90 | 50 to 90 | < 50 | < 50 | < 1 | 50 to 90 | > 90 | Y | > 90 | 50 to 90 | 50 to 90 | < 50 |  |  |  |  |  | CS(=O)(=O)c1c(F)c(F)c(F)c(F)c1Nc1cc2c(Nc3ccc(F)c(Cl)c3)ncnc2cc1O[C@H]1CCOC1 [Compound I-2, (S)—N^4-(3-chloro-4-fluorophenyl)-N^6-(2,3,4,5-tetrafluoro-6-(methylsulfonyl)phenyl)-7-((tetrahydrofuran-3-yl)oxy)quinazoline-4,6-diamine]
> 90 | < 50 | < 50 | < 50 | < 1 | > 90 | > 90 | Y | > 90 | > 90 | > 90 | > 90 | Y |  |  |  |  | C[S+]([O-])c1c(F)c(F)c(F)c(F)c1Nc1cc2c(Nc3ccc(F)c(Cl)c3)ncnc2cc1O[C@H]1CCOC1 (stereo partly drawn) [Compound I-4, N^4-(3-chloro-4-fluorophenyl)-N^6-(2,3,4,5-tetrafluoro-6-(methylsulfinyl)phenyl)-7-(((S)-tetrahydrofuran-3-yl)oxy)quinazoline-4,6-diamine]
< 50 | < 50 | > 90 | < 50 |  | < 50 | < 50 |  | < 50 | < 50 | < 50 | < 50 |  | < 1 | X |  | < 1 | COCCOc1ccc(Nc2ncc(F)c(Nc3cccc(NC(=O)c4c(F)c(F)c(F)c(F)c4S(C)(=O)=O)c3)n2)cc1 [Compound I-61, 2,3,4,5-tetrafluoro-N-(3-((5-fluoro-2-((4-(2-methoxyethoxy)phenyl)amino)pyrimidin-4-yl)amino)phenyl)-6-(methylsulfonyl)benzamide]

Reference: patent US20240018153A1, “BENZENESULFONAMIDE DERIVATIVES AND USES THEREOF” (2692372 ONTARIO, INC., priority 2020, published 2024)
